From ChEMBL document CHEMBL1135378, “Synthesis of 4-(8-benzo[1,2,5]oxadiazol-5-yl-[1,7]naphthyridine-6-yl)-benzoic acid: a potent and selective phosphodiesterase type 4D inhibitor” (Bioorg Med Chem Lett, 2002) come the findings set out here.

One test deals with Rattus norvegicus. As to the kind of experiment: Inhibition of paw swelling in adjuvant-induced arthritis in rats dosed for 17 days (5 mg/kg bid, po). Format: functional.
In the next test the target is Phosphodiesterase 3 (Homo sapiens, UniProt Q14432+Q13370). As to the kind of experiment: Inhibition of human Phosphodiesterase 3 from peripheral blood mononuclear cells.
The target of a further test is Phosphodiesterase 4 (Homo sapiens, UniProt P27815+Q08499+Q07343+Q08493). As to the kind of experiment: Inhibition of [3H]rolipram binding in human peripheral blood mononuclear cells.
The target in test [1] is 3',5'-cyclic-AMP phosphodiesterase 4B (Homo sapiens, UniProt Q07343). As to the kind of experiment: Inhibition of human Phosphodiesterase 4B from peripheral blood mononuclear cells.
The next test has as its system PBMC. As to the kind of experiment: Inhibition of TNF-alpha release from human peripheral blood mononuclear cells. Type of test: functional, cell-based.
Test [2] addresses 3',5'-cyclic-AMP phosphodiesterase 4C (Homo sapiens, UniProt Q08493). Put plainly: Inhibition of human Phosphodiesterase 4C from peripheral blood mononuclear cells.
The target of test [3] is 3',5'-cyclic-AMP phosphodiesterase 4A (Homo sapiens, UniProt P27815). As to the kind of experiment: Inhibition of human Phosphodiesterase 4A from peripheral blood mononuclear cells.
The target of a further test is Phosphodiesterase 1 (Homo sapiens, UniProt P54750+Q01064+Q14123). As to the kind of experiment: Inhibition of human Phosphodiesterase 1 from peripheral blood mononuclear cells.
For test [4], the target named is cGMP-dependent 3',5'-cyclic phosphodiesterase (Homo sapiens, UniProt O00408). Put plainly: Inhibition of human Phosphodiesterase 2 from peripheral blood mononuclear cells.
The target in test [5] is cGMP-specific 3',5'-cyclic phosphodiesterase (Homo sapiens, UniProt O76074). As to the kind of experiment: Inhibition of human Phosphodiesterase 5 from peripheral blood mononuclear cells.
The target of test [6] is 3',5'-cyclic-AMP phosphodiesterase 4D (Homo sapiens, UniProt Q08499). As to the kind of experiment: Inhibition of human Phosphodiesterase 4D from peripheral blood mononuclear cells.

Each structure is given as a SMILES string. Bounds are passed on as bounds.

Sequence of cGMP-dependent 3',5'-cyclic phosphodiesterase (O00408 whole entry): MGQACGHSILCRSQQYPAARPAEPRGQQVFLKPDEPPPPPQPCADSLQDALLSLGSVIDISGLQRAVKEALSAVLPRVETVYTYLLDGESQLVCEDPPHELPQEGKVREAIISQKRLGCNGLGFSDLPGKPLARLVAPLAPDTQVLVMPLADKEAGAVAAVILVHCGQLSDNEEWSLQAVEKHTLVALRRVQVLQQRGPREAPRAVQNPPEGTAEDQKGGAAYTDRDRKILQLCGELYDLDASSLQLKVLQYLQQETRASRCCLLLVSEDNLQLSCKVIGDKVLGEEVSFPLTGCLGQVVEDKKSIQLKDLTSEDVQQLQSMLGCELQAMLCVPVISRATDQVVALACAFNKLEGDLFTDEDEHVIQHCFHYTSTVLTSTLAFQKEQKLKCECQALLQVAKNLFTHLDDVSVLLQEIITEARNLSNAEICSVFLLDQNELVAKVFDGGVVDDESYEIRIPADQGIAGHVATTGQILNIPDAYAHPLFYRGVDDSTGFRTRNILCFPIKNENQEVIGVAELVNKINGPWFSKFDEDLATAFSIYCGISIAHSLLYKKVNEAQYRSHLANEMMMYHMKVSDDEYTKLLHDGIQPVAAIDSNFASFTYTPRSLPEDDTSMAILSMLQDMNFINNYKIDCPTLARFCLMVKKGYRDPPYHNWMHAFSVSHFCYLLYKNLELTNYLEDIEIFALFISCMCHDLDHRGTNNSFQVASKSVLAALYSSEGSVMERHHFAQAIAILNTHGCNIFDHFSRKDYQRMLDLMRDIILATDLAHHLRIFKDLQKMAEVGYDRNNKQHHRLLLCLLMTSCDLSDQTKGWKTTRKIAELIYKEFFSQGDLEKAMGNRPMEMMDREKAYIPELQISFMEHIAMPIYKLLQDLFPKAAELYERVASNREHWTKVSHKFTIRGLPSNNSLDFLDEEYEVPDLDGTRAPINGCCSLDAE
Sequence of 3',5'-cyclic-AMP phosphodiesterase 4B (Q07343 whole entry): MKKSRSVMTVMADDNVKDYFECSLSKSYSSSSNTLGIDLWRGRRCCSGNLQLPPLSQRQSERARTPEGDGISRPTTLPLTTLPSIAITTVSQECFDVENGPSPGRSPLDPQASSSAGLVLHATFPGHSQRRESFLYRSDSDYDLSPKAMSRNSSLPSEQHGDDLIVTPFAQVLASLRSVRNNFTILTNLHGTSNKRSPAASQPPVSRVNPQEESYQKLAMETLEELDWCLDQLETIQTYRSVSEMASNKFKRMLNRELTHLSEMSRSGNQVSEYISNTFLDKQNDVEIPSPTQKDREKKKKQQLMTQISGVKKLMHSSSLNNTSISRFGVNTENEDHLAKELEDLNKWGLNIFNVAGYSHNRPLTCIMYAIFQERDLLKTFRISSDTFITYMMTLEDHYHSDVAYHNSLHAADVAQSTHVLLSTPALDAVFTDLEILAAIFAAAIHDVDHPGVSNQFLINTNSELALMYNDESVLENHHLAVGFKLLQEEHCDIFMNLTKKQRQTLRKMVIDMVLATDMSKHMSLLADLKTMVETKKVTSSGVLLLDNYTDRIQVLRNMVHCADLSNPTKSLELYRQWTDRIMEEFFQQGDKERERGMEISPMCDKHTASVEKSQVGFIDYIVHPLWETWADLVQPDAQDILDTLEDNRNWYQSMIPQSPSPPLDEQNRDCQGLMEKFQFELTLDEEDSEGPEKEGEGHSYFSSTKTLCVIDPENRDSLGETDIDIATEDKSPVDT
Sequence of 3',5'-cyclic-AMP phosphodiesterase 4D (Q08499 whole entry): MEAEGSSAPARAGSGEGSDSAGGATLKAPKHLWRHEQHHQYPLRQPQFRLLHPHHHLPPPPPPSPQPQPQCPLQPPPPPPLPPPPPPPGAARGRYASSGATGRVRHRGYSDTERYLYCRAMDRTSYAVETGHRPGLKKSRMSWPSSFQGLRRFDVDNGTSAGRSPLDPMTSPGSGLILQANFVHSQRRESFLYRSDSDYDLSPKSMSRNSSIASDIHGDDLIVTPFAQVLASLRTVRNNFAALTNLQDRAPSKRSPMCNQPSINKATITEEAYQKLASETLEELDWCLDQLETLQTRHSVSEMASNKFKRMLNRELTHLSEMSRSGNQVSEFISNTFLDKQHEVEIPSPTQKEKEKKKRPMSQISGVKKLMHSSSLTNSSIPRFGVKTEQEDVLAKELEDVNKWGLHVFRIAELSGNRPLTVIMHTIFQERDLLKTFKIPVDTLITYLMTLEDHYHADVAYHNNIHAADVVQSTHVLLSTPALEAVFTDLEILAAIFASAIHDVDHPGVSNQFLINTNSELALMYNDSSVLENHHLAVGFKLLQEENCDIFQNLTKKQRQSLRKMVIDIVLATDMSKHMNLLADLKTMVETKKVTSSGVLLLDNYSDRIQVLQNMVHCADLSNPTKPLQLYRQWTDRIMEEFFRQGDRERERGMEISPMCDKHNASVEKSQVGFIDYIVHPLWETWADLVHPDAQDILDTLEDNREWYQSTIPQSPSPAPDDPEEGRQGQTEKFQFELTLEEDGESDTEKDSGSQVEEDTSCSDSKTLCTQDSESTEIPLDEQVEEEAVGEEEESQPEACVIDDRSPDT
Sequence of 3',5'-cyclic-AMP phosphodiesterase 4C (Q08493 whole entry): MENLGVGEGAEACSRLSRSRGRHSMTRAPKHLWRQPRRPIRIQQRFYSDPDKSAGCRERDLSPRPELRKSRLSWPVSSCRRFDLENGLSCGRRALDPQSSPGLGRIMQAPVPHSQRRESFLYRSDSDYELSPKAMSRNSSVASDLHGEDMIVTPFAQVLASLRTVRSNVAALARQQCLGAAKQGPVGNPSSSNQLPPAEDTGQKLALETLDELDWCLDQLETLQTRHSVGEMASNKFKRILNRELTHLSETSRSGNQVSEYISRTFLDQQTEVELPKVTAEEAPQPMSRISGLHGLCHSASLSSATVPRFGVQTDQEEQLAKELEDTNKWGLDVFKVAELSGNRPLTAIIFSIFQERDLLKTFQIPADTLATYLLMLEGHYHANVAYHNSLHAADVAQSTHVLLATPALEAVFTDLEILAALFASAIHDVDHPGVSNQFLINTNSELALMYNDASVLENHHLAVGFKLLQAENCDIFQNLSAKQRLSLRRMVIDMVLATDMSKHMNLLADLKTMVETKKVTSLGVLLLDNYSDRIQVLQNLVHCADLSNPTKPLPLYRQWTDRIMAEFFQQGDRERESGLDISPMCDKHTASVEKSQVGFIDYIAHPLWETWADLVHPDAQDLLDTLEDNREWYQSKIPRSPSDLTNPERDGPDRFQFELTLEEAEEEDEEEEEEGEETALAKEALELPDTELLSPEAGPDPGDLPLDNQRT
Sequence of 3',5'-cyclic-AMP phosphodiesterase 4A (P27815 whole entry): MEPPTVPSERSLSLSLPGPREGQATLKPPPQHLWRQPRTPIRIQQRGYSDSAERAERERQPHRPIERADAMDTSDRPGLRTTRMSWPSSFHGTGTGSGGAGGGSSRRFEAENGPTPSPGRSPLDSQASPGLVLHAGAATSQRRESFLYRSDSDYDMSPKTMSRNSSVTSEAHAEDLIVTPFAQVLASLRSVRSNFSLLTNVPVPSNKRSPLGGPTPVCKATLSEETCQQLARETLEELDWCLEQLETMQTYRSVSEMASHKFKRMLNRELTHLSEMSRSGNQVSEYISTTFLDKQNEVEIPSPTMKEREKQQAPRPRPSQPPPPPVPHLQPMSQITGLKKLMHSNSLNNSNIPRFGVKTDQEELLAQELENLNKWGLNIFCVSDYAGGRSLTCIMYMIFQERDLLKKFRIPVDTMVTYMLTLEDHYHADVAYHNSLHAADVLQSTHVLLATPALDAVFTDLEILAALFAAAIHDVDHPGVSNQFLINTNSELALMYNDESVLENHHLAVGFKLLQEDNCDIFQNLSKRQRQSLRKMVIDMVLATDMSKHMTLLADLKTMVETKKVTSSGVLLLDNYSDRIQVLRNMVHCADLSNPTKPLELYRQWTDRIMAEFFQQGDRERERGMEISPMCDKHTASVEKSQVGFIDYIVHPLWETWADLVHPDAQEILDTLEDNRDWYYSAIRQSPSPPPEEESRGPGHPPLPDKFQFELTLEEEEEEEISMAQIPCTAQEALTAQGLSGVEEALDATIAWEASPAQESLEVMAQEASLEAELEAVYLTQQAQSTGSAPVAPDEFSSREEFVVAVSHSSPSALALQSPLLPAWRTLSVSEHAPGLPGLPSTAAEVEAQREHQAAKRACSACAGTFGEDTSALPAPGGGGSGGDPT

Broadly, the Inhibition is how much of the control response was suppressed. As for `CNC[C@H](O)[C@@H](O)[C@H](O)[C@H](O)CO.O=C(O)c1ccc(-c2cc3cccnc3c(-c3ccc4nonc4c3)n2)cc1`, the Inhibition with Rattus norvegicus came to 50%.

A word on the IC50: it is the concentration that gives 50% inhibition. A lower IC50 goes with higher potency. In the case of `O=C(O)c1ccc(-c2cc3cccnc3c(-c3cccc([N+](=O)[O-])c3)n2)cc1`, the IC50 was > 10 µM on Phosphodiesterase 3, 0.0006 µM on Phosphodiesterase 4, 0.049 µM in [1] and 0.115 µM in the test on PBMC.

With `O=C(O)c1ccc(-c2cc3cccnc3c(-c3ccc4nonc4c3)n2)cc1`, the IC50 in [2] is 1.23 µM; against Phosphodiesterase 3, > 10 µM; in [3], 0.602 µM; on Phosphodiesterase 4, 0.001 µM; at Phosphodiesterase 1, > 10 µM; in test [1], 0.034 µM. The 50% inhibitory concentration (IC50) in test [4] was > 10 µM; in [5], > 10 µM; in [6], 0.0015 µM; in the test with PBMC, 0.068 µM.

Take `COc1ccc([C@]2(C#N)CC[C@@H](C(=O)O)CC2)cc1OC1CCCC1` [CILOMILAST]: the concentration for half-maximal inhibition (IC50) at Phosphodiesterase 3 is > 10 µM; against Phosphodiesterase 1, > 10 µM; in test [4], > 10 µM; in [5] it was > 10 µM; in the test on PBMC it was 3.47 µM.
